Publication doi:10.1101/2023.02.27.530254, “Large library docking for cannabinoid-1 receptor agonists with reduced side effects” (bioRxiv, 2024)
pEC50, pKi: −log10 of the molar value. Like-named read-outs stand apart in the source and are kept apart here.

Assays:
[1] = molecular target: T1, CB1 (Rattus norvegicus, UniProt P20272); assay: Radioligand competition binding with [3H]-CP-55,940, rat brain membranes; conditions: for Emax: read-out: rCB1 binding Emax [SEM]
T1 construct: membrane preparations from rat brain (source of CB1); tissue Bioivt RAT00BRAINMZN; host or cells: rat brain
T1 sequence (P20272 whole entry): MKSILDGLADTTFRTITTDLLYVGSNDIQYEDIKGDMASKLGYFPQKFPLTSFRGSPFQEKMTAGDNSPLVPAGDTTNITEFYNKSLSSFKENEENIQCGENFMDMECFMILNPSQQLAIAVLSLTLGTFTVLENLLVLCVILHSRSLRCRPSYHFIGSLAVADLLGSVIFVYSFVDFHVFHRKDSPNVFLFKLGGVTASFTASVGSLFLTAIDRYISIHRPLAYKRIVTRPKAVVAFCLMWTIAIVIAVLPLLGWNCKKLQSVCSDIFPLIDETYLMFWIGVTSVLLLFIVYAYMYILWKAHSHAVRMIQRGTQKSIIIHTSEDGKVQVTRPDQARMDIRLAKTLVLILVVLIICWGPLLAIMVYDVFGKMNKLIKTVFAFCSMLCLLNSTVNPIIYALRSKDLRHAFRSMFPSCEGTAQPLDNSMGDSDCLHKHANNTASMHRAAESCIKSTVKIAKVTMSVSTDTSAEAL
Procedure: The results were analyzed using nonlinear regression to determine the IC50 and Ki values for each ligand (Prism by GraphPad Software, Inc., San Diego, CA). The Ki values are expressed as the mean of two to three experiments each performed in triplicate.

[2] = molecular target: hCB1 (Homo sapiens, UniProt P21554); assay: bioSens-All ebBRET effector biosensor signaling profiling, HEK293; type: cell-based; set-up: host or cells: HEK293 (HEK293SL clone), transient
Chain of hCB1 (P21554 whole entry, the tested form may be a part): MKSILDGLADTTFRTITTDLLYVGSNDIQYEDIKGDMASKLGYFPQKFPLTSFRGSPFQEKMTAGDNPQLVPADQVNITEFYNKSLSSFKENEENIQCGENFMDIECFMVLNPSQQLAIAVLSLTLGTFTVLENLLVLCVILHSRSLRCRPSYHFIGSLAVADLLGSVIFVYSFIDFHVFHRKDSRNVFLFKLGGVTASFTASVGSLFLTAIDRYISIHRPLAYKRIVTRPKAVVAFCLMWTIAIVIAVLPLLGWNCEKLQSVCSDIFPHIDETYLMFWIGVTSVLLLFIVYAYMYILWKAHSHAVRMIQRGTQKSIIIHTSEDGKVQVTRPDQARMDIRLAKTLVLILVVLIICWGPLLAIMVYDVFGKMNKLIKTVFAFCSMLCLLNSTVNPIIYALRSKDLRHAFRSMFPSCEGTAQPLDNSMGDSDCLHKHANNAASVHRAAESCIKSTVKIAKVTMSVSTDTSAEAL
Procedure: (§1) ebBRET-based effector membrane translocation biosensor assays were conducted at Domain Therapeutics NA Inc. (Montreal, QC, Canada) as previously described. […] HEK293 cells were maintained in Dulbecco’s Modified Eagle Medium (DMEM) (Wisent) supplemented with 1% penicillin- streptomycin (Wisent) and 10% (or 2 % for transfection) fetal bovine serum (Wisent) at 37°C with 5% CO2. All biosensor-coding plasmids and related information are the property of Domain Therapeutics NA Inc. The total amount of transfected DNA was adjusted and kept constant at 1 μg per mL of cell culture to be transfected using salmon sperm DNA (Invitrogen) as ‘carrier’ DNA, PEI (polyethylenimine 25 kDa linear, PolyScience) and DNA (3:1 ml PEI:mg DNA ratio) were first diluted separately in 150 mM NaCl then mixed and incubated for at least 20 minutes at room temperature to allow for the formation of DNA/PEI complexes. During the incubation, HEK293 cells were detached, counted, and re-suspended in maintenance medium to a 350,000 cells per mL density. At the end of the incubation period, the DNA/PEI mixture was added to the cells. Cells were finally distributed in 96-well plates (White Opaque 96-well /Microplates, Greiner) at a density of 35,000 cells per well. Forty-eight hours post-transfection, medium was aspirated and replaced with 100 μl of Hank’s Balanced Salt Solution buffer (HBSS) (Wisent) per well using 450-Select TS Biotek plate washer. After 60 min incubation in this medium, 10 μL of 10 μM e-Coelenterazine Prolume Purple (Methoxy e-CTZ) (Nanolight) was added to each well for a final concentration of 1 μM immediately followed by addition of increasing concentrations of the test compounds to each well using the HP D300 digital dispenser (Tecan). All compounds were assayed at 22 concentrations with each biosensor after a 10-minute room temperature incubation period. […] All BRET ratios were standardized using the universal BRET (uBRET) equation: uBRET=BRETratio-A/B-A×10,000 where A is the BRET ratio obtained from transfection of negative control and B is the BRET ratio obtained from transfection of positive control. […] The data were analyzed using the four-parameter logistic non-linear regression model in GraphPad Prism 9.1 and data were presented as means ± CIs of 1–4 independent experiments.
(§2) The SEM was calculated for the logEmax/EC50 ratios using the following equation: SEM=σ/n where σ is the standard deviation, and n is the number of experiments.

[3] = molecular target: hCB2 (Homo sapiens, UniProt P34972); assay: as above; type: cell-based; set-up: host or cells: HEK293 (HEK293SL clone), transient
Chain of hCB2 (P34972 whole entry): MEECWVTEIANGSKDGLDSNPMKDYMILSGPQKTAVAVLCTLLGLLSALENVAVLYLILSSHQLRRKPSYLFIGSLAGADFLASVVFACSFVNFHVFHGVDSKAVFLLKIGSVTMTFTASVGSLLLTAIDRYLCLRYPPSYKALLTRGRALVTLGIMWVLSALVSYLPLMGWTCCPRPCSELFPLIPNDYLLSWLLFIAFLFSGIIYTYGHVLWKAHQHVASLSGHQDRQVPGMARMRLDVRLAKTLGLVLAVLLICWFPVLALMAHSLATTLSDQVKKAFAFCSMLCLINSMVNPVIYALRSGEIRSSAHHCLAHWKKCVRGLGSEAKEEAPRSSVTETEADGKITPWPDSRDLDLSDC
Procedure: as §1, §2

[4] = HEK293, read-out: hCB1 Gi1 Emax [95% CI]
[5] = HEK293, read-out: hCB1 GoB Emax [95% CI]
[6] = maximal radioligand displacement
[7] = rCB1 binding Ki [95% CI], [3H]-CP-55,940 competition, rat brain membranes
[8] = HEK293, read-out: hCB1 Gz Emax [95% CI]
[9] = hCB1 Gi1 EC50 [95% CI], Gi1 sensor
[10] = hCB1 GoB EC50 [95% CI], GoB sensor

SMILES: Cc1cc(C(=O)N2CC3(CCC3)[C@@H]3COC[C@@H]32)nn1-c1cccc(C(F)(F)F)c1 [10_14]
- % [3H]-CP-55,940 displacement (mean) from single point screen ([1]; screens at 10 μM (white cells), 1 μM (orange) or 300 nM (green), cell colours not visible): 91.30%

SMILES: Cn1nc(-c2nnc(C(C)(C)Oc3ccc(C(F)(F)F)cc3)o2)c2ccccc2c1=O [‘2153]
- Emax [2, 4]: 89%
- Emax [2, 5]: 109%
- pEC50 ([2]; hCB1 Gi1 EC50 [95% CI]): 6.00
- pEC50 ([2]; hCB1 GoB EC50 [95% CI]): 5.69
- Emax [1, 6]: 82.6%
- pKi [1, 7]: 6.79

SMILES: Cc1cc(C(=O)N(C)C(c2ccco2)c2ccco2)nn1-c1cccc(C(F)(F)F)c1 [‘4388]
- rCB1 binding pKi [95% CI] ([1]; [3H]-CP-55,940 competition, rat brain membranes): 5.9 [5.7 – 6.0]
- rCB1 binding Emax [SEM] [1, 6]: 113%
- pKi ([1]; read-out: rCB1 binding Ki [95% CI], [3H]-CP-55,940 competition, rat brain membranes): 5.87

SMILES: CCCCCCC(C)(C)c1cc(O)c2c(c1)OC(C)(C)C1CCC(=O)CC21 (centres unmarked) [Nabilone, reference compound]
- Emax [1, 6]: 81%
- pKi ([1]; rCB1 binding pKi [95% CI], [3H]-CP-55,940 competition, rat brain membranes): 8.60

SMILES: COC(=O)[C@H](c1cccs1)N(C)C(=O)c1cc(C)n(-c2cccc(C(F)(F)F)c2)n1 [‘1066]
- Emax [1, 6]: 97%
- pKi [1, 7]: 5.76

SMILES: COC(=O)C(c1ccco1)N(C)C(=O)c1cc(C)n(-c2cccc(C(F)(F)F)c2)n1 (centres unmarked) [‘6425]
- Emax [1, 6]: 108%
- pKi [1, 7]: 6.03

SMILES: CC(=O)C(c1cccs1)N(C)C(=O)c1cc(C)n(-c2cccc(C(F)(F)F)c2)n1 (centres unmarked) [‘6829]
- Emax [2, 4]: 68%
- Emax [2, 5]: 49%
- Emax [2, 8]: 70%
- pEC50 ([2]; hCB1 Gi1 EC50 [95% CI]): 5.39
- pEC50 ([2]; hCB1 GoB EC50 [95% CI]): 6.00
- pEC50 ([2]; hCB1 Gz EC50 [95% CI]): 5.87
- Emax [1, 6]: 106%
- pKi [1, 7]: 5.98

SMILES: Cc1cc(C(=O)N2CC3(CCC3)[C@H]2[C@@H]2CCCO2)nn1-c1cccc(C(F)(F)F)c1 [‘3737a]
- Emax [2, 4]: 98%
- Emax [2, 5]: 118%
- Emax [2, 8]: 140%
- pEC50 ([2]; hCB1 Gi1 EC50 [95% CI]): 5.55
- pEC50 ([2]; hCB1 GoB EC50 [95% CI]): 5.17
- pEC50 ([2]; hCB1 Gz EC50 [95% CI]): 5.61
- pEC50 ([2]; hCB1 Gz pEC50 [95% CI]): 5.60

SMILES: Cc1cc(C(=O)N(C)C(c2ccccc2)c2ccco2)nn1-c1cccc(C(F)(F)F)c1 (centres unmarked) [‘1082]
- Emax [1, 6]: 94%
- pKi [1, 7]: 6.07

SMILES: COC(=O)C(NC(=O)c1cc(-c2ccccc2)n(-c2cccc(C(F)(F)F)c2)n1)c1cccs1 (centres unmarked) [‘8079]
- Emax [1, 6]: 104%
- pKi [1, 7]: 7.73

SMILES: CCCCC/C=C\C/C=C\C/C=C\C/C=C\CCCC(=O)OC(CO)CO [2-AG, reference compound]
- hCB2 Gi1 pEC50 [95% CI] ([3]; Gi1 sensor): 6.66 [6.6 – 6.7]
- hCB2 Gi2 pEC50 [95% CI] ([3]; Gi2 sensor): 7.0 [6.9 – 7.2]
- hCB2 Gi2 Emax [95% CI] ([3]; Gi2 sensor, normalized to CP-55,940): 78 [74 – 84]
- hCB2 GoB pEC50 [95% CI] ([3]; GoB sensor): 6.4 [6.3 – 6.5]
- hCB2 GoB Emax [95% CI] ([3]; GoB sensor, normalized to CP-55,940): 101 [98 – 104]
- hCB2 Gz pEC50 [95% CI] ([3]; Gz sensor): 5.7 [4.1 – 6.0]
- hCB2 Gz Emax [95% CI] ([3]; Gz sensor, normalized to CP-55,940): 96 [76 – 233]
- pEC50 ([3]; read-out: hCB2 Barr2 + GRK2 EC50 [95% CI], ßarrestin-2 sensor with GRK2): 5.73
- pEC50 ([3]; read-out: hCB2 Gi1 EC50 [95% CI], Gi1 sensor): 6.66
- pEC50 ([3]; read-out: hCB2 Gi2 EC50 [95% CI], Gi2 sensor): 7.02
- pEC50 ([3]; read-out: hCB2 GoB EC50 [95% CI], GoB sensor): 6.40
- pEC50 ([3]; read-out: hCB2 Gz EC50 [95% CI], Gz sensor): 5.67
- hCB2 Barr2 + GRK2 pEC50 [95% CI] ([3]; ßarrestin-2 sensor with GRK2): 5.7 [5.4 – 6.0]
- hCB2 Barr2 + GRK2 Emax [95% CI] ([3]; ßarrestin-2 sensor with GRK2, normalized to CP-55,940): 118 [104 – 140]

SMILES: Cc1nc(CC2CC2)oc1-c1nc(Cc2cc3c(cc2Br)OCO3)no1 [‘7019]
- pKi [1, 7]: 5.39

SMILES: Cc1cc(C(=O)NC(c2ccccc2)c2ccco2)nn1-c1cccc(C#N)c1 (centres unmarked) [‘12565]
- Emax [2, 4]: 28%
- Emax [2, 5]: 25%
- Emax [2, 8]: 51%
- pEC50 [2, 9]: 6.98
- pEC50 [2, 10]: 7.35
- pEC50 ([2]; hCB1 GoB pEC50 [95% CI], GoB sensor): 7.40
- pEC50 ([2]; hCB1 Gz EC50 [95% CI], Gz sensor): 7.26
- Emax [1, 6]: 97%
- pKi [1, 7]: 6.52

SMILES: Cc1cc(C(=O)NC(c2ccco2)c2ccco2)nn1-c1cccc(C(F)(F)F)c1 [‘1090]
- Emax [2, 4]: 81%
- Emax [2, 5]: 90%
- Emax [2, 8]: 115%
- pEC50 [2, 9]: 7.45
- pEC50 ([2]; hCB1 Gi1 pEC50 [95% CI], Gi1 sensor): 7.50
- pEC50 [2, 10]: 7.43
- pEC50 ([2]; hCB1 Gz EC50 [95% CI]): 6.90
- Emax [1, 6]: 99%
- pKi [1, 7]: 7.04
